Source: the supplement of paper PMC10307832

Experiments:
Test in all cases: relative viability (nuclei count vs DMSO), 5 days (fraction); higher = more cells survive
17-AAG + Tozasertib = compound: C=CCNC1=C2C[C@@H](C)C[C@H](OC)[C@H](O)[C@@H](C)/C=C(\C)[C@H](OC(N)=O)[C@@H](OC)/C=C\C=C(/C)C(=O)NC(=CC1=O)C2=O [17-AAG] + Cc1cc(Nc2cc(N3CCN(C)CC3)nc(Sc3ccc(NC(=O)C4CC4)cc3)n2)n[nH]1 [Tozasertib] (partner 0.1 µM)
How it was run: (§1)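 Lung cancer cell lines were seeded in 1536-well plates and dosed by pin tool the next day, with either a single drug or a fixed anchor-drug dose combined with five library-drug doses (not always all listed) spaced in √10 steps. Five days later, one step fixed the cells and stained their nuclei (final 0.05% Triton X-100, 1% formaldehyde, 1 ug/ml Hoechst), and nuclei were counted on 4× images. Relative viability is the nuclei count in treated wells divided by the count in vehicle wells, and each value is the median of duplicate plates.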

17-AAG + Phenformin = compound: C=CCNC1=C2C[C@@H](C)C[C@H](OC)[C@H](O)[C@@H](C)/C=C(\C)[C@H](OC(N)=O)[C@@H](OC)/C=C\C=C(/C)C(=O)NC(=CC1=O)C2=O [17-AAG] + N=C(N)NC(=N)NCCc1ccccc1 [Phenformin] (partner 250 µM)
How it was run: as §1

17-AAG + Navitoclax = compound: C=CCNC1=C2C[C@@H](C)C[C@H](OC)[C@H](O)[C@@H](C)/C=C(\C)[C@H](OC(N)=O)[C@@H](OC)/C=C\C=C(/C)C(=O)NC(=CC1=O)C2=O [17-AAG] + CC1(C)CCC(c2ccc(Cl)cc2)=C(CN2CCN(c3ccc(C(=O)NS(=O)(=O)c4ccc(N[C@H](CCN5CCOCC5)CSc5ccccc5)c(S(=O)(=O)C(F)(F)F)c4)cc3)CC2)C1 [Navitoclax] (partner 0.5 µM)
How it was run: as §1

17-AAG = compound: C=CCNC1=C2C[C@@H](C)C[C@H](OC)[C@H](O)[C@@H](C)/C=C(\C)[C@H](OC(N)=O)[C@@H](OC)/C=C\C=C(/C)C(=O)NC(=CC1=O)C2=O [17-AAG]
How it was run: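 Only plates meeting two conditions passed: control CV below 25% and at least one doubling. Lung cancer cell lines, kept overnight at 37 °C in 1536-well plates, were pinned with five library-drug doses (not always all listed) √10 apart on vehicle-anchored plates and grown 5 days without medium change. A one-step fix, permeabilisation and Hoechst stain preceded 4× imaging and MetaXpress nuclear counting. Viability equals treated-well nuclei divided by vehicle-well nuclei, as the median over plates.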

| Cell Line | relative viability (17-AAG + Tozasertib; first compound 0.00128 µM) | relative viability (17-AAG + Tozasertib; first compound 0.004048 µM) | relative viability (17-AAG + Tozasertib; first compound 0.0128 µM) | relative viability (17-AAG + Tozasertib; first compound 0.04048 µM) | relative viability (17-AAG + Tozasertib; first compound 0.128 µM) | relative viability (17-AAG + Phenformin; first compound 0.00128 µM) | relative viability (17-AAG + Phenformin; first compound 0.004048 µM) | relative viability (17-AAG + Phenformin; first compound 0.0128 µM) | relative viability (17-AAG + Phenformin; first compound 0.04048 µM) | relative viability (17-AAG + Phenformin; first compound 0.128 µM) | relative viability (17-AAG + Navitoclax; first compound 0.00128 µM) | relative viability (17-AAG + Navitoclax; first compound 0.004048 µM) | relative viability (17-AAG + Navitoclax; first compound 0.0128 µM) | relative viability (17-AAG + Navitoclax; first compound 0.04048 µM) | relative viability (17-AAG + Navitoclax; first compound 0.128 µM) | relative viability (17-AAG; 0.00128 µM) | relative viability (17-AAG; 0.004048 µM) | relative viability (17-AAG; 0.0128 µM) | relative viability (17-AAG; 0.04048 µM) | relative viability (17-AAG; 0.128 µM) |
| --- | --- | --- | --- | --- | --- | --- | --- | --- | --- | --- | --- | --- | --- | --- | --- | --- | --- | --- | --- | --- |
| HCC-15 | 0.429 | 0.453 | 0.365 | 0.124 | 0.0778 | 0.433 | 0.33 | 0.146 | 0.124 | 0.107 | 0.767 | 0.57 | 0.434 | 0.469 | 0.144 | 0.94 | 0.923 | 0.557 | 0.14 | 0.122 |
| HCC-44 | 0.898 | 0.753 | 0.293 | 0.19 | 0.135 | 0.22 | 0.285 | 0.158 | 0.0925 | 0.0873 | 1 | 0.929 | 0.897 | 0.481 | 0.207 | 1 | 0.976 | 0.992 | 0.278 | 0.19 |
| HCC-78 | 0.443 | 0.401 | 0.418 | 0.637 | 0.223 | 0.644 | 0.818 | 0.676 | 0.553 | 0.351 | 0.753 |  | 0.938 | 0.942 | 0.286 | 0.935 | 1.02 | 1.01 | 0.727 | 0.425 |
| HCC-366 | 0.191 | 0.22 | 0.268 | 0.044 | 0.0391 | 0.653 | 0.591 | 0.159 | 0.0455 | 0.0292 | 1.06 | 1.02 | 0.358 | 0.0314 | 0.0217 | 1.02 | 1.04 | 0.49 | 0.0512 | 0.0477 |
| HCC-827 | 0.402 | 0.427 | 0.467 |  | 0.432 | 0.368 | 0.447 | 0.363 |  | 0.251 | 0.973 | 1.03 | 1.01 |  | 0.944 | 1.05 | 0.997 | 1.02 |  | 0.77 |
| HOP-62 | 0.363 | 0.466 | 0.386 | 0.212 | 0.17 | 0.711 | 0.541 | 0.404 | 0.305 | 0.118 | 1.16 | 1.01 | 1.05 | 0.843 | 0.151 | 1.03 | 0.881 | 0.904 | 0.436 | 0.126 |
| IA-LM |  |  |  |  |  |  |  |  |  |  | 0.901 | 0.784 | 0.757 | 0.237 | 0.0731 | 0.954 | 0.956 | 0.874 | 0.393 | 0.118 |
| LC-2-ad | 0.437 | 0.437 | 0.429 | 0.316 | 0.226 | 0.476 | 0.523 | 0.273 | 0.258 | 0.227 | 0.525 | 0.565 | 0.393 | 0.234 | 0.111 | 0.943 | 0.974 | 0.793 | 0.27 | 0.19 |
| LCLC-103H | 0.555 | 0.55 | 0.458 | 0.532 | 0.643 | 0.351 | 0.345 | 0.3 | 0.346 | 0.325 |  |  |  |  |  | 1.02 | 1 | 0.957 | 1.04 | 1.07 |
| NCI-H358 | 0.115 | 0.0905 | 0.0894 | 0.0684 | 0.0644 | 0.321 | 0.155 | 0.0612 | 0.0774 | 0.0534 |  |  |  |  |  | 0.889 | 0.532 | 0.119 | 0.115 | 0.103 |
| NCI-H522 | 0.621 | 0.532 | 0.619 | 0.558 | 0.502 | 0.627 | 0.599 | 0.635 | 0.294 | 0.471 |  |  |  |  |  | 0.805 | 1.09 | 0.782 | 0.602 | 0.433 |
| NCI-H650 | 0.698 | 0.675 | 0.702 | 0.584 | 0.153 | 0.445 | 0.459 | 0.421 | 0.308 | 0.228 |  |  |  |  |  | 0.894 | 1.01 | 0.798 | 0.511 | 0.264 |
| NCI-H661 | 0.372 | 0.326 | 0.358 | 0.344 | 0.289 | 0.304 | 0.293 | 0.293 | 0.256 | 0.188 |  |  |  |  |  | 0.937 | 0.998 | 0.953 | 0.549 | 0.295 |
| NCI-H1299 |  |  |  |  |  |  |  |  |  |  | 1.04 | 1.01 | 1.07 | 0.952 | 0.755 | 1.01 | 0.977 | 0.981 | 0.931 | 0.538 |
| NCI-H1563 |  |  |  |  |  | 0.657 | 0.594 | 0.52 | 0.464 | 0.473 |  |  |  |  |  | 1.03 | 0.893 | 0.599 | 0.629 | 0.519 |
| NCI-H1648 | 0.433 |  | 0.426 | 0.608 | 0.327 |  |  |  |  |  |  |  |  |  |  | 0.888 | 1.08 | 0.839 | 0.673 | 0.59 |
| NCI-H1703 |  |  |  |  |  |  |  |  |  |  | 0.961 | 0.22 | 0.16 | 0.162 | 0.125 | 0.911 | 0.734 | 0.173 | 0.191 | 0.145 |
| NCI-H1792 |  |  |  |  |  | 0.338 | 0.216 | 0.066 | 0.0797 | 0.0405 | 0.592 | 0.675 | 0.523 | 0.477 | 0.115 | 0.888 | 0.772 | 0.347 | 0.165 | 0.181 |
| NCI-H2342 | 0.442 | 0.437 | 0.518 | 0.493 | 0.306 | 0.562 | 0.792 | 0.554 | 0.398 | 0.379 |  |  |  |  |  | 0.951 | 1.01 | 1.01 | 0.78 | 0.428 |
| SW 900 | 0.684 | 0.565 | 0.262 | 0.133 | 0.113 | 0.577 | 0.37 | 0.13 | 0.0856 | 0.0981 |  |  |  |  |  | 0.831 | 0.727 | 0.312 | 0.155 | 0.141 |
